The supplement of paper PMC10307832

How the values were obtained:
Assay in all cases: relative viability (nuclei count vs DMSO), 5 days (fraction); higher = more cells survive
HCC-15 = test system: HCC-15
In short: (§1)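 Lung cancer cell lines, seeded in 1536-well plates, were treated the following day by pin tool with a single drug or with five library-drug doses (not always all listed) in √10 steps on top of a fixed anchor-drug dose. Cells were fixed and nuclei stained in one step after 5 days, and nuclei were counted. Relative viability is the nuclei count for treated wells divided by that for vehicle wells, reported as medians of duplicate plates.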

NCI-H1793 = test system: NCI-H1793
In short: as §1

EKVX = test system: EKVX
In short: as §1

SW 900 = test system: SW 900
In short: as §1

H3255 = test system: H3255
In short: as §1

NCI-H522 = test system: NCI-H522
In short: as §1

NCI-H322M = test system: NCI-H322M
In short: as §1

ChaGo-K-1 = test system: ChaGo-K-1
In short: as §1

LC-2-ad = test system: LC-2-ad
In short: as §1

NCI-H1792 = test system: NCI-H1792
In short: as §1

EMC-BAC-2 = test system: EMC-BAC-2
In short: as §1

NCI-H1993 = test system: NCI-H1993
In short: as §1

NCI-H1915 = test system: NCI-H1915
In short: as §1

HCC-827 = test system: HCC-827
In short: as §1

PC-14 = test system: PC-14
In short: as §1

LCLC-97TM1 = test system: LCLC-97TM1
In short: as §1

NCI-H23 = test system: NCI-H23
In short: as §1

NCI-H661 = test system: NCI-H661
In short: as §1

NCI-H1944 = test system: NCI-H1944
In short: as §1

NCI-H460 = test system: NCI-H460
In short: as §1

SK-LU-1 = test system: SK-LU-1
In short: as §1

EPLC-272H = test system: EPLC-272H
In short: as §1

COCC1(CO)C(=O)C2CCN1CC2 (stereo not drawn) [PRIMA-1MET] + Nc1nc2[nH]cc(CCc3ccc(C(=O)N[C@@H](CCC(=O)O)C(=O)O)cc3)c2c(=O)[nH]1 [Pemetrexed] (partner 0.2 µM)
relative viability (HCC-15; first compound 0.2 µM): 0.213 | relative viability (HCC-15; first compound 0.6325 µM): 0.214 | relative viability (HCC-15; first compound 2 µM): 0.212 | relative viability (HCC-15; first compound 6.325 µM): 0.21 | relative viability (HCC-15; first compound 20 µM): 0.217 | relative viability (NCI-H1793; first compound 0.2 µM): 0.964 | relative viability (NCI-H1793; first compound 0.6325 µM): 0.803 | relative viability (NCI-H1793; first compound 6.325 µM): 1.09 | relative viability (NCI-H1793; first compound 20 µM): 0.919 | relative viability (EKVX; first compound 0.2 µM): 0.448 | relative viability (EKVX; first compound 2 µM): 0.385 | relative viability (EKVX; first compound 6.325 µM): 0.447 | relative viability (EKVX; first compound 20 µM): 0.385 | relative viability (SW 900; first compound 0.2 µM): 0.522 | relative viability (SW 900; first compound 0.6325 µM): 0.282 | relative viability (SW 900; first compound 6.325 µM): 0.455 | relative viability (SW 900; first compound 20 µM): 0.0805 | relative viability (H3255; first compound 0.2 µM): 0.634 | relative viability (H3255; first compound 0.6325 µM): 0.458 | relative viability (H3255; first compound 2 µM): 0.601 | relative viability (H3255; first compound 6.325 µM): 0.567 | relative viability (H3255; first compound 20 µM): 0.534 | relative viability (NCI-H522; first compound 0.2 µM): 0.789 | relative viability (NCI-H522; first compound 0.6325 µM): 0.927 | relative viability (NCI-H522; first compound 2 µM): 1.01 | relative viability (NCI-H522; first compound 6.325 µM): 0.946 | relative viability (NCI-H522; first compound 20 µM): 0.423 | relative viability (NCI-H322M; first compound 0.2 µM): 0.633 | relative viability (NCI-H322M; first compound 0.6325 µM): 0.562 | relative viability (NCI-H322M; first compound 6.325 µM): 0.624 | relative viability (NCI-H322M; first compound 20 µM): 0.0887 | relative viability (ChaGo-K-1; first compound 0.2 µM): 0.249 | relative viability (ChaGo-K-1; first compound 0.6325 µM): 0.261 | relative viability (ChaGo-K-1; first compound 2 µM): 0.26 | relative viability (ChaGo-K-1; first compound 6.325 µM): 0.247 | relative viability (ChaGo-K-1; first compound 20 µM): 0.263 | relative viability (LC-2-ad; first compound 0.2 µM): 0.26 | relative viability (LC-2-ad; first compound 0.6325 µM): 0.301 | relative viability (LC-2-ad; first compound 2 µM): 0.268 | relative viability (LC-2-ad; first compound 6.325 µM): 0.273 | relative viability (LC-2-ad; first compound 20 µM): 0.259 | relative viability (NCI-H1792; first compound 0.2 µM): 0.713 | relative viability (NCI-H1792; first compound 6.325 µM): 0.947 | relative viability (NCI-H1792; first compound 20 µM): 0.676 | relative viability (EMC-BAC-2; first compound 0.2 µM): 0.549 | relative viability (EMC-BAC-2; first compound 0.6325 µM): 0.44 | relative viability (EMC-BAC-2; first compound 2 µM): 0.422 | relative viability (EMC-BAC-2; first compound 6.325 µM): 0.459 | relative viability (EMC-BAC-2; first compound 20 µM): 0.473 | relative viability (NCI-H1993; first compound 0.2 µM): 0.592 | relative viability (NCI-H1993; first compound 2 µM): 0.592 | relative viability (NCI-H1993; first compound 6.325 µM): 0.534 | relative viability (NCI-H1993; first compound 20 µM): 0.557 | relative viability (NCI-H1915; first compound 0.2 µM): 0.54 | relative viability (NCI-H1915; first compound 0.6325 µM): 0.522 | relative viability (NCI-H1915; first compound 2 µM): 0.466 | relative viability (NCI-H1915; first compound 6.325 µM): 0.511 | relative viability (NCI-H1915; first compound 20 µM): 0.467 | relative viability (HCC-827; first compound 0.2 µM): 0.221 | relative viability (HCC-827; first compound 0.6325 µM): 0.144 | relative viability (HCC-827; first compound 2 µM): 0.239 | relative viability (HCC-827; first compound 6.325 µM): 0.554 | relative viability (HCC-827; first compound 20 µM): 0.275 | relative viability (PC-14; first compound 0.2 µM): 0.124 | relative viability (PC-14; first compound 0.6325 µM): 0.148 | relative viability (PC-14; first compound 2 µM): 0.114 | relative viability (PC-14; first compound 6.325 µM): 0.148 | relative viability (PC-14; first compound 20 µM): 0.0292 | relative viability (LCLC-97TM1; first compound 0.2 µM): 0.193 | relative viability (LCLC-97TM1; first compound 0.6325 µM): 0.198 | relative viability (LCLC-97TM1; first compound 2 µM): 0.182 | relative viability (LCLC-97TM1; first compound 6.325 µM): 0.197 | relative viability (LCLC-97TM1; first compound 20 µM): 0.21 | relative viability (NCI-H23; first compound 0.2 µM): 0.425 | relative viability (NCI-H23; first compound 0.6325 µM): 0.595 | relative viability (NCI-H23; first compound 2 µM): 0.443 | relative viability (NCI-H23; first compound 6.325 µM): 0.579 | relative viability (NCI-H23; first compound 20 µM): 0.175 | relative viability (NCI-H661; first compound 0.2 µM): 0.954 | relative viability (NCI-H661; first compound 0.6325 µM): 0.849 | relative viability (NCI-H661; first compound 2 µM): 0.952 | relative viability (NCI-H661; first compound 6.325 µM): 0.963 | relative viability (NCI-H661; first compound 20 µM): 0.928 | relative viability (NCI-H1944; first compound 0.2 µM): 0.738 | relative viability (NCI-H1944; first compound 0.6325 µM): 0.555 | relative viability (NCI-H1944; first compound 2 µM): 0.535 | relative viability (NCI-H1944; first compound 6.325 µM): 0.519 | relative viability (NCI-H1944; first compound 20 µM): 0.655 | relative viability (NCI-H460; first compound 0.2 µM): 0.0602 | relative viability (NCI-H460; first compound 0.6325 µM): 0.051 | relative viability (NCI-H460; first compound 2 µM): 0.0601 | relative viability (NCI-H460; first compound 6.325 µM): 0.0553 | relative viability (NCI-H460; first compound 20 µM): 0.0386 | relative viability (SK-LU-1; first compound 0.2 µM): 1.01 | relative viability (SK-LU-1; first compound 0.6325 µM): 1.12 | relative viability (SK-LU-1; first compound 2 µM): 1.01 | relative viability (SK-LU-1; first compound 6.325 µM): 0.955 | relative viability (SK-LU-1; first compound 20 µM): 0.652 | relative viability (EPLC-272H; first compound 0.2 µM): 0.35 | relative viability (EPLC-272H; first compound 0.6325 µM): 0.403 | relative viability (EPLC-272H; first compound 2 µM): 0.314 | relative viability (EPLC-272H; first compound 6.325 µM): 0.317 | relative viability (EPLC-272H; first compound 20 µM): 0.138
